Assay results: paper PMC11478334, “Quaternized Curcumin Derivative—Synthesis, Physicochemical Characteristics, and Photocytotoxicity, Including Antibacterial Activity after Irradiation with Blue Light” (Molecules, 2024)
Read-outs that look alike come from different tables or passages of the source.

Tests used:
[1] = Singlet oxygen generation quantum yields, indirect method with DPBF or TTF; format: physicochemical
Description: Singlet oxygen generation quantum yield assessment constitutes a crucial measurement for the prospective photosensitizers applied in photodynamic therapy. For the singlet oxygen generation study, the indirect method was chosen with two different singlet oxygen quenchers—1,3-diphenylisobenzofuran (DPBF) and tetrathiafulvalene (TTF). Due to the partial overlapping of the DPBF band with the studied compounds’ bands in absorption spectra, a singlet oxygen formation assessment was also performed with TTF as a chemical singlet oxygen scavenger. The values obtained for new curcuminoids 2 and 3 were referenced to curcumin and ZnPc.
Singlet oxygen quantum yield measurements for 2, 3, and curcumin were assessed in dimethyl sulfoxide (DMSO; Fisher, Longborough, UK) and N,N-dimethylformamide (DMF; Fisher) at ambient temperature according to the comparative method protocols described previously. The method involves using chemical quenchers of singlet oxygen, 1,3-diphenylisobenzofuran (DPBF; Merck, Steinheim, Germany), tetrathiafulvalene (TTF; Aldrich, Steinheim, Germany), and an unsubstituted zinc(II) phthalocyanine (ZnPc; Aldrich) as a reference compound. The mixtures of curcumins and DPBF or TTF were irradiated with light adjusted to the maximum absorbance wavelength through the M250 monochromator (Optel, Opole, Poland). The changes in spectra under the irradiation were recorded with an OceanOptics Flame spectrophotometer equipped with a DT-MINI-2-GS light source. The singlet oxygen quantum yields were calculated using the previously presented equation [39, 73, 74, 75].

[2] = Aggregation studies by UV-vis serial dilution; format: physicochemical; settings: in DMF
Description: The aggregation properties of the studied compounds were evaluated using statistical analysis of the UV–vis absorption spectra during serial dilution. […] This can be associated with the presence of a positive charge that prevents aggregation due to the repulsion of the same charges. […] According to the literature, DMSO can permeate into curcumin clusters and stabilize the non-aggregated molecules due to solvation.
The aggregation studies were performed at ambient temperature. Known amounts of 2, 3, and curcumin as a reference in volumetric flasks were dissolved in DMSO and DMF and left to stir overnight. Then, the solutions were diluted appropriately to achieve concentrations in the range between 1.5 × 10^−6 mol/dm^3 and 5.5 × 10^−5 mol/dm^3. The samples were then moved into quartz cuvettes (l = 10 mm, Hellma, Müllheim, Germany), and their spectra were recorded using a Shimadzu U-1900 spectrophotometer (Shimadzu, Kyoto, Japan). The recorded spectra and numerical data were then used for the determination of the dependence between the maximum peak absorption and the sample concentration according to the A = f(c) function, used further for statistical verification of the Lambert–Beer law.

[3] = tested on: PHDF—primary human dermal fibroblasts; experiment: MTT cell viability assay; format: cell-based
Description: (§1) To determine the toxicity of the tested compounds against normal and tumor cells, a cell viability assay was performed using MTT dye. The following cell lines were used: PHDF—primary human dermal fibroblasts, MRC-5—lung fibroblasts, WM266-4—melanoma, and WM115—melanoma. Whenever possible, the IC50 value was calculated for each cell line. The IC50 results are reported in Table 9, while Figure 14 presents graphs illustrating the dependence of cell viability on the concentration of the tested compounds.
(§2) In order to analyze the cytotoxic effect of curcumin and compounds 2 and 3, different cell lines were used: PHDF—primary human dermal fibroblasts, MRC-5—lung fibroblasts, WM266-4—melanoma (low-melanotic), and WM115—melanoma (high-melanotic). All cell lines were seeded onto 96-well flat-bottom plates at a concentration of 15,000 cells/well. Curcumin (1) and compounds 2 and 3 were dissolved in the completed culture medium at the final concentrations of 5 µM, 10 µM, 20 µM, 30 µM, 40 µM, and 50 µM. The final volume of medium in each well was 200 µL. Cells which were not exposed to the tested compounds constituted a control group. After 24 h, each of the reagents was added to the cells. Control cells were not treated with synthesized reagents; they were incubated with a completed cell culture medium. The incubation of cells with 1, 2, or 3 lasted 24 and 48 h. Then, the medium was discarded, and the new medium containing MTT (3-(4,5-dimethylthiazol-2-yl)-2,5-diphenyltetrazolium bromide) (Affymetrix, Cleveland, OH, USA) at a final concentration of 0.5 mg/mL was added to the cell culture. Cells were incubated for 2.5 h in cell culture conditions. Next, the medium was removed, and 100 µL of DMSO (Thermo Scientific, Waltham, MA, USA) was added to dissolve the formed formazan crystals. The absorbance was read with a Multiskan plate reader at 570 nm and the background at 655 nm (Thermo Scientific, Waltham, MA, USA). The experiment was performed in triplicate.
(§3) PHDF cells were extracted from skin pieces collected following mastectomy procedures at the Greater Poland Cancer Centre in Poznań, Poland. Each time, informed patient agreement was acquired for the “The Cancer Genome Atlas (TCGA)” project to utilize biological material for scientific research purposes. […] The MRC-5, WM266-4, and WM115 cell lines were obtained from the American Type Culture Collection (ATCC). For culturing of the PHDF, WM266-4, and WM115 cell lines, the medium contained Dulbecco′s Modified Eagle′s Medium (DMEM) (Biowest, Nuaillé, France), 10% of fetal bovine serum (Biowest, Nuaillé, France), and 1% of penicillin/streptomycin agents (Merck Millipore, Darmstadt, Germany). Cells were incubated in a humidified incubator containing 5% CO2. The MRC-5 cell line was cultured similarly to the method described in our previous article. Briefly, cells were incubated at 37 °C in an atmosphere enriched with 5% CO2. The basic culture medium was Dulbecco’s Modified Eagle’s Medium (DMEM) (Biowest, Nuaillé, France) supplemented with 10% fetal bovine serum (FBS) (Biowest, Nuaillé, France) with the addition of 2 mM L-glutamine and 5% non-essential amino acid solution.

[4] = tested on: WM115—melanoma (high-melanotic); experiment: MTT cell viability assay; format: cell-based
Description: as §1, §2, §3

[5] = tested on: WM266-4—melanoma (low-melanotic); experiment: MTT cell viability assay; format: cell-based
Description: as §1, §2, §3

[6] = 24 h incubation, read-out: IC50 24 h
[7] = 48 h incubation, read-out: IC50 48 h (converted)
[8] = Homo sapiens, Fibroblast, 24 h incubation, read-out: IC50 24 h
[9] = Homo sapiens, Fibroblast, 48 h incubation, read-out: IC50 48 h

Row | Compound | singlet oxygen quantum yield ([1]; TTF quencher, DMF) | singlet oxygen quantum yield ([1]; TTF quencher, DMSO) | singlet oxygen generation ΦΔ, estimated ([1]; natural curcumin, solvent not stated) | aggregation [2] | IC50 [3, 6] | IC50 ([3]; 48 h incubation, read-out: IC50 48 h) | IC50 [4, 6] | IC50 [4, 7] | IC50 ([5]; 24 h incubation, listed as curcumin, read-out: IC50 24 h) | IC50 [5, 6] | IC50 ([5]; 48 h incubation, listed as curcumin, read-out: IC50 48 h (converted)) | IC50 [5, 7] | singlet oxygen quantum yield ([1]; DPBF quencher, DMF) | singlet oxygen quantum yield ([1]; DPBF quencher, DMSO) | IC50 [3, 8] | IC50 [3, 9] | singlet oxygen generation ΦΔ, reaching up to ([1]; TTF used, solvent not stated)
1 | Curcumin [reference compound] | 0.098 | 0.116 | 0.04–0.1 | strong aggregation | > 50 µM | 24.6 µM | 39.5 ± 9.4 µM | 18.1 µM | 45 µM | 44.9 ± 10.7 µM | 21 µM | 20.6 µM | – | – | – | – | –
2 | F[B-]1(F)OC(/C=C/c2ccc(OCCN3CCOCC3)cc2)=CC(/C=C/c2ccc(OCCN3CCOCC3)cc2)=[O+]1 [Compound 2] | <0.01 | <0.01 | – | strong aggregation | – | – | > 50 µM | > 50 µM | – | > 50 µM | – | > 50 µM | <0.01 | 0.024 | > 50 µM | 28.4 µM | –
3 | C[N+]1(CCOc2ccc(C=CC3=CC(C=Cc4ccc(OCC[N+]5(C)CCOCC5)cc4)=[O+][B-](F)(F)O3)cc2)CCOCC1 [Compound 3] | 0.084 | 0.057 | – | negligible | – | – | > 50 µM | > 50 µM | – | > 50 µM | – | > 50 µM | 0.026 | 0.046 | > 50 µM | > 50 µM | ≤ 0.1
